Results on five compounds are retold here after ChEMBL document CHEMBL5579899, “Discovery and In Vivo Exploration of 1,3,4-Oxadiazole and α-Fluoroacrylate Containing IL-17 Inhibitors” (J Med Chem, 2024).

The structures appear in SMILES notation. In brackets after ≈: the same amount, converted by molar mass.

Tested on in one series: not listed separately
Kind of series: Apparent permeability coefficient of the compound across apical to basolateral side in dog MDCK cells by high-throughput analysis. The class given is ADME, cell-based, Canis lupus familiaris.
Details: not given
With `COC[C@H](c1cnn2cc([C@@H](NC(=O)/C(F)=C3\CCOC3)C3CCC(F)(F)CC3)nc2c1)N1C[C@@H](C(F)(F)F)NC1=O`, the Papp A→B came out at 7.4 ×10⁻⁶ cm/s.
The same measure, in the same setting: the figure for `COC[C@H](c1cnn2cc([C@@H](NC(=O)/C(F)=C\C3(F)CC3)C3CCC(F)(F)CC3)nc2c1)N1C[C@@H](C(F)(F)F)NC1=O` is 12 ×10⁻⁶ cm/s.
Regarding `COC[C@H](c1cnn2cc([C@@H](Nc3nnc(C(C)(F)F)o3)C3CCC(F)(F)CC3)nc2c1)N1C[C@@H](C(F)(F)F)NC1=O`, the apparent permeability from apical to basolateral (Papp A→B) stood at 3.6 ×10⁻⁶ cm/s.
The same measure, in the same setting: the figure for `COC[C@H](c1cnn2cc([C@@H](Nc3nnc(C4CC4)o3)C3CCC(F)(F)CC3)nc2c1)N1C[C@@H](C(F)(F)F)NC1=O` is 1.7 ×10⁻⁶ cm/s.
On the same count and under the same terms, under `COC[C@H](c1cnn2cc([C@@H](NC(=O)c3nonc3C)C3CCC(F)(F)CC3)nc2c1)N1C[C@@H](C(F)(F)F)NC1=O` [LY-3509754] stands 11 ×10⁻⁶ cm/s.

Tested on in another series: not listed separately
Description: Inhibition of biotinylated human IL-17A/AF647-labeled human IL-17RA protein-protein interaction preincubated for 30 mins with compound followed by addition of AF647-labeled human IL-17RA incubated for 90 min by TR-FRET assay.
Details: not given
Regarding `COC[C@H](c1cnn2cc([C@@H](NC(=O)/C(F)=C3\CCOC3)C3CCC(F)(F)CC3)nc2c1)N1C[C@@H](C(F)(F)F)NC1=O`, the 50% inhibitory concentration (IC50) came to 102 nM.
Turning to `COC[C@H](c1cnn2cc([C@@H](NC(=O)/C(F)=C\C3(F)CC3)C3CCC(F)(F)CC3)nc2c1)N1C[C@@H](C(F)(F)F)NC1=O`, the half-maximal inhibitory concentration (IC50) was determined as 16 nM.
Same read-out and setting: the figure for `COC[C@H](c1cnn2cc([C@@H](Nc3nnc(C(C)(F)F)o3)C3CCC(F)(F)CC3)nc2c1)N1C[C@@H](C(F)(F)F)NC1=O` is 38 nM; for `COC[C@H](c1cnn2cc([C@@H](Nc3nnc(C4CC4)o3)C3CCC(F)(F)CC3)nc2c1)N1C[C@@H](C(F)(F)F)NC1=O` it is 53 nM; for `COC[C@H](c1cnn2cc([C@@H](NC(=O)c3nonc3C)C3CCC(F)(F)CC3)nc2c1)N1C[C@@H](C(F)(F)F)NC1=O` [LY-3509754] it is 10 nM.

Tested on in a further series: not listed separately
Kind of series: Inhibition of IL-6 production in IL-17/TNF-alpha stimulated human NHDF cells incubated for 24 hrs by ELISA. The class given is functional, cell-based. Conditions: 24 h.
Compound `COC[C@H](c1cnn2cc([C@@H](NC(=O)/C(F)=C3\CCOC3)C3CCC(F)(F)CC3)nc2c1)N1C[C@@H](C(F)(F)F)NC1=O` showed an IC50 of 34 nM.
On the same count and under the same terms, under `COC[C@H](c1cnn2cc([C@@H](NC(=O)/C(F)=C\C3(F)CC3)C3CCC(F)(F)CC3)nc2c1)N1C[C@@H](C(F)(F)F)NC1=O` stands 4 nM.
On to `COC[C@H](c1cnn2cc([C@@H](Nc3nnc(C(C)(F)F)o3)C3CCC(F)(F)CC3)nc2c1)N1C[C@@H](C(F)(F)F)NC1=O`, for which half-maximal inhibition (IC50) required 8 nM.
Same read-out and setting: the figure for `COC[C@H](c1cnn2cc([C@@H](Nc3nnc(C4CC4)o3)C3CCC(F)(F)CC3)nc2c1)N1C[C@@H](C(F)(F)F)NC1=O` is 15 nM.
Same read-out and setting: the figure for `COC[C@H](c1cnn2cc([C@@H](NC(=O)c3nonc3C)C3CCC(F)(F)CC3)nc2c1)N1C[C@@H](C(F)(F)F)NC1=O` [LY-3509754] is 4 nM.

Tested on in the next series: not listed separately
Description: Lipophilicity, logD of compound at pH 7.4. Conditions: buffer. The class given is physicochemical.
Take `COC[C@H](c1cnn2cc([C@@H](NC(=O)/C(F)=C3\CCOC3)C3CCC(F)(F)CC3)nc2c1)N1C[C@@H](C(F)(F)F)NC1=O`: the logD amounted to 2.6.
The same measure, in the same setting: the figure for `COC[C@H](c1cnn2cc([C@@H](NC(=O)/C(F)=C\C3(F)CC3)C3CCC(F)(F)CC3)nc2c1)N1C[C@@H](C(F)(F)F)NC1=O` is 2.8; for `COC[C@H](c1cnn2cc([C@@H](Nc3nnc(C(C)(F)F)o3)C3CCC(F)(F)CC3)nc2c1)N1C[C@@H](C(F)(F)F)NC1=O` it is 3; for `COC[C@H](c1cnn2cc([C@@H](Nc3nnc(C4CC4)o3)C3CCC(F)(F)CC3)nc2c1)N1C[C@@H](C(F)(F)F)NC1=O` it is 2.7.
The compound `COC[C@H](c1cnn2cc([C@@H](NC(=O)c3nonc3C)C3CCC(F)(F)CC3)nc2c1)N1C[C@@H](C(F)(F)F)NC1=O` [LY-3509754] showed a logD of 3.1.

Tested on in the next series: not listed separately
Description: Equilibrium solubility of compound […] at pH 6.8 by high-throughput analysis. The class given is physicochemical.
Details: not given
`COC[C@H](c1cnn2cc([C@@H](NC(=O)/C(F)=C3\CCOC3)C3CCC(F)(F)CC3)nc2c1)N1C[C@@H](C(F)(F)F)NC1=O` displayed a solubility greater than 750 µM.
`COC[C@H](c1cnn2cc([C@@H](NC(=O)/C(F)=C\C3(F)CC3)C3CCC(F)(F)CC3)nc2c1)N1C[C@@H](C(F)(F)F)NC1=O`: the solubility stood at 560 µM (≈ 340 µg/mL).
The same measure, in the same setting: under `COC[C@H](c1cnn2cc([C@@H](Nc3nnc(C(C)(F)F)o3)C3CCC(F)(F)CC3)nc2c1)N1C[C@@H](C(F)(F)F)NC1=O` stands 400 µM (≈ 243 µg/mL).
The same measure, in the same setting: under `COC[C@H](c1cnn2cc([C@@H](Nc3nnc(C4CC4)o3)C3CCC(F)(F)CC3)nc2c1)N1C[C@@H](C(F)(F)F)NC1=O` stands greater than 750 µM.
The compound `COC[C@H](c1cnn2cc([C@@H](NC(=O)c3nonc3C)C3CCC(F)(F)CC3)nc2c1)N1C[C@@H](C(F)(F)F)NC1=O` [LY-3509754] yielded a solubility of 380 µM (≈ 223 µg/mL).

Tested on in a further series: not listed separately
Kind of series: Metabolic stability in rat liver microsomes assessed as intrinsic clearance. The class given is ADME, Microsome. Conditions: read-out: CLH.
For `COC[C@H](c1cnn2cc([C@@H](NC(=O)/C(F)=C3\CCOC3)C3CCC(F)(F)CC3)nc2c1)N1C[C@@H](C(F)(F)F)NC1=O`, the microsomal CLint amounted to 321 µL/min/mg.
Same read-out and setting: under `COC[C@H](c1cnn2cc([C@@H](NC(=O)/C(F)=C\C3(F)CC3)C3CCC(F)(F)CC3)nc2c1)N1C[C@@H](C(F)(F)F)NC1=O` stands 64 µL/min/mg; under `COC[C@H](c1cnn2cc([C@@H](Nc3nnc(C(C)(F)F)o3)C3CCC(F)(F)CC3)nc2c1)N1C[C@@H](C(F)(F)F)NC1=O`, 18 µL/min/mg.
Same read-out and setting: the figure for `COC[C@H](c1cnn2cc([C@@H](Nc3nnc(C4CC4)o3)C3CCC(F)(F)CC3)nc2c1)N1C[C@@H](C(F)(F)F)NC1=O` is 17 µL/min/mg.
Same read-out and setting: under `COC[C@H](c1cnn2cc([C@@H](NC(=O)c3nonc3C)C3CCC(F)(F)CC3)nc2c1)N1C[C@@H](C(F)(F)F)NC1=O` [LY-3509754] stands 20 µL/min/mg.

Tested on in the next series: not listed separately
Kind of series: Metabolic stability in human liver microsomes assessed as intrinsic clearance. The class given is ADME, Microsome. Conditions: read-out: CLH.
For `COC[C@H](c1cnn2cc([C@@H](NC(=O)/C(F)=C3\CCOC3)C3CCC(F)(F)CC3)nc2c1)N1C[C@@H](C(F)(F)F)NC1=O`, the microsomal CLint turned out to be 50 µL/min/mg.
Still for that read-out and setting: under `COC[C@H](c1cnn2cc([C@@H](NC(=O)/C(F)=C\C3(F)CC3)C3CCC(F)(F)CC3)nc2c1)N1C[C@@H](C(F)(F)F)NC1=O` stands 164 µL/min/mg; under `COC[C@H](c1cnn2cc([C@@H](Nc3nnc(C(C)(F)F)o3)C3CCC(F)(F)CC3)nc2c1)N1C[C@@H](C(F)(F)F)NC1=O`, 37 µL/min/mg.
Consider `COC[C@H](c1cnn2cc([C@@H](Nc3nnc(C4CC4)o3)C3CCC(F)(F)CC3)nc2c1)N1C[C@@H](C(F)(F)F)NC1=O`, for which the microsomal CLint is less than 25 µL/min/mg.
Still for that read-out and setting: the figure for `COC[C@H](c1cnn2cc([C@@H](NC(=O)c3nonc3C)C3CCC(F)(F)CC3)nc2c1)N1C[C@@H](C(F)(F)F)NC1=O` [LY-3509754] is 32 µL/min/mg.

Tested on in another series: not listed separately
Kind of series: Plasma clearance in Sprague-Dawley rat at 1 mg/kg,iv measured upto 24 hrs by LC-MS/MS analysis.
Details: not given
The class given is ADME, organism-based.
Regarding `COC[C@H](c1cnn2cc([C@@H](NC(=O)/C(F)=C3\CCOC3)C3CCC(F)(F)CC3)nc2c1)N1C[C@@H](C(F)(F)F)NC1=O`, the clearance was determined as 42 mL/min/kg.
The same measure, in the same setting: under `COC[C@H](c1cnn2cc([C@@H](Nc3nnc(C4CC4)o3)C3CCC(F)(F)CC3)nc2c1)N1C[C@@H](C(F)(F)F)NC1=O` stands 86 mL/min/kg; under `COC[C@H](c1cnn2cc([C@@H](NC(=O)c3nonc3C)C3CCC(F)(F)CC3)nc2c1)N1C[C@@H](C(F)(F)F)NC1=O` [LY-3509754], 24 mL/min/kg.

Tested on in another series: not listed separately
Kind of series: AUC in Sprague-Dawley rat at 3 mg/kg,po measured upto 24 hrs by LC-MS/MS analysis. The class given is ADME, organism-based. The settings on record: Sprague-Dawley, in vivo.
The compound `COC[C@H](c1cnn2cc([C@@H](NC(=O)/C(F)=C3\CCOC3)C3CCC(F)(F)CC3)nc2c1)N1C[C@@H](C(F)(F)F)NC1=O` came in with an AUC at 24 h of 0.08 µM·h.
Same read-out and setting: under `COC[C@H](c1cnn2cc([C@@H](Nc3nnc(C4CC4)o3)C3CCC(F)(F)CC3)nc2c1)N1C[C@@H](C(F)(F)F)NC1=O` stands 0.026 µM·h.
As for `COC[C@H](c1cnn2cc([C@@H](NC(=O)c3nonc3C)C3CCC(F)(F)CC3)nc2c1)N1C[C@@H](C(F)(F)F)NC1=O` [LY-3509754], the AUC at 24 h amounted to 5.43 µM·h.

The series is the same for the next values; noted with them: in vivo, po, 3 mg/kg, 24 h.
The compound `COC[C@H](c1cnn2cc([C@@H](NC(=O)/C(F)=C\C3(F)CC3)C3CCC(F)(F)CC3)nc2c1)N1C[C@@H](C(F)(F)F)NC1=O` registered an AUC of 0.013 µM·h.
Still for that read-out and setting: the figure for `COC[C@H](c1cnn2cc([C@@H](Nc3nnc(C(C)(F)F)o3)C3CCC(F)(F)CC3)nc2c1)N1C[C@@H](C(F)(F)F)NC1=O` is 0.946 µM·h.

Tested on in the next series: not listed separately
Kind of series: Oral bioavailability in Sprague-Dawley rat at 3 mg/kg measured upto 24 hrs by LC-MS/MS analysis. The class given is ADME, organism-based. Conditions: Sprague-Dawley, in vivo.
`COC[C@H](c1cnn2cc([C@@H](NC(=O)/C(F)=C3\CCOC3)C3CCC(F)(F)CC3)nc2c1)N1C[C@@H](C(F)(F)F)NC1=O`: the bioavailability turned out to be 4%.
As to `COC[C@H](c1cnn2cc([C@@H](Nc3nnc(C4CC4)o3)C3CCC(F)(F)CC3)nc2c1)N1C[C@@H](C(F)(F)F)NC1=O`, the bioavailability worked out at 2.5%.
Still for that read-out and setting: the figure for `COC[C@H](c1cnn2cc([C@@H](NC(=O)c3nonc3C)C3CCC(F)(F)CC3)nc2c1)N1C[C@@H](C(F)(F)F)NC1=O` [LY-3509754] is 119%.

Staying with this series, now noted: in vivo, po, 3 mg/kg, 24 h.
`COC[C@H](c1cnn2cc([C@@H](NC(=O)/C(F)=C\C3(F)CC3)C3CCC(F)(F)CC3)nc2c1)N1C[C@@H](C(F)(F)F)NC1=O`: the F turned out to be 23%.
For the compound `COC[C@H](c1cnn2cc([C@@H](Nc3nnc(C(C)(F)F)o3)C3CCC(F)(F)CC3)nc2c1)N1C[C@@H](C(F)(F)F)NC1=O`, the F is recorded as 41%.

The test system of the next series is Rattus norvegicus. Kind of series: Antiarthritic activity in antigen-induced arthritis Lewis rat model assessed as reduction in knee swelling at 10 mg/kg,po bid administrated for 4 days. The class given is functional. Also on record: scale not given: the % may be the effect or the level left. The settings on record: time 4 day.
With `COC[C@H](c1cnn2cc([C@@H](Nc3nnc(C(C)(F)F)o3)C3CCC(F)(F)CC3)nc2c1)N1C[C@@H](C(F)(F)F)NC1=O`, the Activity is 64%.
